The text below walks through data of US20260022142A1, “MACROCYCLIC IMMUNOMODULATORS” (Bristol-Myers Squibb Company, priority 2022, published 2026).

Structures are written as SMILES. Numbered stars: 1 amine (or outer) side, 2 acyl side, 3 side chain; on linkers, the order of the positions; unused ones are H or OH. Bridge positions count the residues as written; N and C are the ends. Square brackets hold non-standard residues; d marks the D form. Peptide text beside a SMILES is read from it. * marks the point of attachment. ξ: configuration not given here. Phe(3-CF3) = N[C@@H](Cc1cccc(C(F)(F)F)c1)C(=O)O; Phe(4-COOH) = N[C@@H](Cc1ccc(C(=O)O)cc1)C(=O)O; Bip = N[C@@H](Cc1ccc(-c2ccccc2)cc1)C(=O)O; NH(CH2)14COOH = O=C(O)CCCCCCCCCCCCCCN*; Phe(3-Me) = Cc1cccc(C[C@H](N)C(=O)O)c1; X5 = CC(C)(CCN)[C@H](N[*:1])C(=O)[*:2]; Val(3-OH) = CC(C)(O)[C@H](N)C(=O)O; X6 = O=C(Cc1ccc(CN[*:1])cc1)[*:2]; hArg = N=C(N)NCCCC[C@H](N)C(=O)O; 4Pal = N[C@@H](Cc1ccncc1)C(=O)O; Cha = N[C@@H](CC1CCCCC1)C(=O)O; Ile(3ξ) = CCC(C)[C@H](N)C(=O)O; aThr = C[C@H](O)[C@H](N)C(=O)O; Thr(3ξ) = CC(O)[C@H](N)C(=O)O; Carboxymethyl = O=C(O)C*; Orn = NCCC[C@H](N)C(=O)O; Aun = NCCCCCCCCCCC(=O)O; Dab = NCC[C@H](N)C(=O)O; Dap = NC[C@H](N)C(=O)O; AEEA = NCCOCCOCC(=O)O

The target of this assay is T1, PD-1/PD-L1 interaction (PE-labeled human PD-L1-Ig binding to Jurkat cell line over-expressing human PD-1) (Homo sapiens, UniProt Q15116).
T1 construct: expressed in transfected cells; host or cells: Jurkat
T1 sequence (Q15116 25-288): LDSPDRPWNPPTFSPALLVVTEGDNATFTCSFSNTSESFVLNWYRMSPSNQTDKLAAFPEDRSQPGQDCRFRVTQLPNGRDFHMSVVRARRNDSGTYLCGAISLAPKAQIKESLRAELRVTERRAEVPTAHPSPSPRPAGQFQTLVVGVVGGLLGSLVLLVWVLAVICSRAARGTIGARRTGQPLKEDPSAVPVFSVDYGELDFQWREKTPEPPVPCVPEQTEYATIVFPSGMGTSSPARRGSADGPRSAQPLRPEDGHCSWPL
In words: Jurkat-PD-1 Cell Binding High-Content Screening Assay (CBA). The format is cell-based. Conditions: Jurkat cell line over-expressing human PD-1; PE-labeled PD-L1-Ig 20 nM final; read-out: Jurkat hPD1-PDL1 IC50. A digest of the protocol:
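Binding of fluorescent PD-L1-Ig (phycoerythrin on Ig tag, 20 nM final, 1 h) measured by high-content imaging of fixed, Hoechst-counterstained Jurkat-hPD-1 cells. Compound added 2 h at 37° C beforehand, in DMEM with 10% fetal calf serum.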
Consider `CC(C)C[C@@H]1NC(=O)[C@H](Cc2c[nH]c3ccccc23)NC(=O)[C@H](CC(=O)O)NC(=O)[C@H](Cc2ccc(OCC(=O)O)cc2)NC(=O)[C@H](C(C)O)NC(=O)CSC[C@@H](C(=O)N[C@@H](CCN)C(=O)NCCCCCCCCCCC(=O)O)NC(=O)[C@H](CCN)NC(=O)[C@H](C(C)O)NC(=O)[C@H](CC2CCCCC2)NC(=O)[C@H](CCN)NC(=O)[C@@H](CC(C)C)NC(=O)[C@H](CCCN)NC(=O)[C@H](Cc2ccc(O)cc2)NC(=O)[C@H](Cc2ccc(-c3ccccc3)cc2)NC1=O` (stereo partly drawn) [Compound 3683] ({CH2CO}-[Thr(3ξ)]Y(Carboxymethyl)DWL[Bip]Y[Orn][dL][Dab][Cha][Thr(3ξ)][Dab]C[Dab][Aun]-OH; thioether N-14), for which the IC50 amounted to 118 nM.

As to `Cc1cccc(C[C@@H]2NC(=O)[C@H](CC(=O)O)NC(=O)[C@H](Cc3ccc(OCC(=O)O)cc3)NC(=O)[C@H](CN)NC(=O)CSC[C@@H](C(=O)NCc3ccc(CC(=O)N[C@@H](CCN)C(=O)NCCCCCCCCCCC(=O)O)cc3)NC(=O)[C@H](CN)NC(=O)[C@H](C(C)C)NC(=O)[C@H](CC3CCCCC3)NC(=O)[C@H](CCN)NC(=O)[C@@H](CC(C)C)NC(=O)[C@H](CCCN)NC(=O)[C@H](C(C)C)NC(=O)[C@H](Cc3ccc(-c4ccccc4)cc3)NC(=O)[C@H](C(C)C)NC2=O)c1` [Compound 2003] ({CH2CO}-[Dap]Y(Carboxymethyl)D[Phe(3-Me)]V[Bip]V[Orn][dL][Dab][Cha]V[Dap]C[X6][Dab][Aun]-OH; thioether N-14), the IC50 is 136 nM.

`CC(C)C[C@H]1NC(=O)[C@H](CCCN)NC(=O)[C@H](C(C)C)NC(=O)[C@H](Cc2ccc(-c3ccccc3)cc2)NC(=O)[C@H](C(C)C)NC(=O)[C@H](Cc2c[nH]c3ccccc23)NC(=O)[C@H](CC(=O)O)NC(=O)[C@H](Cc2ccc(OCC(=O)O)cc2)NC(=O)[C@H](CCCCNC(=N)N)NC(=O)CSC[C@@H](C(=O)N[C@@H](CCCN)C(=O)NCCCCCCCCCCC(=O)O)NC(=O)[C@H](C(C)O)NC(=O)[C@H](C(C)C)NC(=O)[C@H](CC2CCCCC2)NC(=O)[C@H](Cc2cnc[nH]2)NC1=O` (stereo partly drawn) [Compound 3159] ({CH2CO}-[hArg]Y(Carboxymethyl)DWV[Bip]V[Orn][dL]H[Cha]V[Thr(3ξ)]C[Orn][Aun]-OH; thioether N-14): the IC50 came out at 42.6 nM.

For `Cc1cccc(C[C@@H]2NC(=O)[C@H](CC(=O)O)NC(=O)[C@H](Cc3ccc(OCC(=O)O)cc3)NC(=O)[C@H](CCCNC(=N)N)NC(=O)CSC[C@@H](C(=O)N[C@H](C(=O)NCCCCCCCCCCC(=O)O)C(C)(C)CCN)NC(=O)[C@H]([C@@H](C)O)NC(=O)[C@H](C(C)C)NC(=O)[C@H](CC3CCCCC3)NC(=O)[C@H](CCN)NC(=O)[C@@H](CC(C)C)NC(=O)[C@H](CCCN)NC(=O)[C@H](Cc3ccc(OCC(=O)O)cc3)NC(=O)[C@H](Cc3ccc(-c4ccccc4)cc3)NC(=O)[C@H](Cc3ccc(O)cc3)NC2=O)c1` [Compound 2116] ({CH2CO}-RY(Carboxymethyl)D[Phe(3-Me)]Y[Bip]Y(Carboxymethyl)[Orn][dL][Dab][Cha]VTC[X5][Aun]-OH; thioether N-14), the half-inhibitory concentration (IC50) is 53.5 nM.

As for `CC(C)C[C@@H]1NC(=O)CSC[C@@H](C(=O)N[C@@H](CCN)C(=O)NCCCCCCCCCCCCCCC(=O)O)NC(=O)[C@H](CCC(=O)O)NC(=O)[C@H](C(C)(C)O)NC(=O)[C@H](CC2CCCCC2)NC(=O)[C@H](CCN)NC(=O)[C@@H](CC(C)C)NC(=O)[C@H](CCCN)NC(=O)[C@H](Cc2ccc(OCC(=O)O)cc2)NC(=O)[C@H](Cc2ccc(-c3ccccc3)cc2)NC(=O)[C@H](Cc2ccc(OCC(=O)O)cc2)NC(=O)[C@H](Cc2cccc(C(F)(F)F)c2)NC(=O)[C@H](CC(=O)O)NC(=O)[C@H](Cc2ccc(OCC(=O)O)cc2)NC1=O` [Compound 3874] ({CH2CO}-LY(Carboxymethyl)D[Phe(3-CF3)]Y(Carboxymethyl)[Bip]Y(Carboxymethyl)[Orn][dL][Dab][Cha][Val(3-OH)]EC[Dab]-{NH(CH2)14COOH}; thioether N-14), the half-maximal inhibitory concentration (IC50) amounted to 815 nM.

On to `CC[C@H](C)[C@@H]1NC(=O)[C@H](Cc2ccc(-c3ccccc3)cc2)NC(=O)[C@H](C(C)C)NC(=O)[C@H](Cc2cccc(C)c2)NC(=O)[C@H](CC(=O)O)NC(=O)[C@H](Cc2ccc(C(=O)O)cc2)NC(=O)[C@H](Cc2ccncc2)NC(=O)CSC[C@@H](C(=O)NCCOCCOCC(=O)N[C@@H](CCCN)C(=O)NCCCCCCCCCCC(=O)O)NC(=O)[C@H]([C@@H](C)O)NC(=O)[C@H](C(C)C)NC(=O)[C@H](CC2CCCCC2)NC(=O)[C@H](CCN)NC(=O)[C@@H](CC(C)C)NC(=O)[C@H](CCCN)NC1=O` [Compound 1190] ({CH2CO}-[4Pal][Phe(4-COOH)]D[Phe(3-Me)]V[Bip]I[Orn][dL][Dab][Cha]VTC[AEEA][Orn][Aun]-OH; thioether N-14), for which the half-maximal inhibitory concentration (IC50) is 24.8 nM.

Turning to `CC(C)C[C@H]1NC(=O)[C@H](CCCN)NC(=O)[C@H](C(C)C)NC(=O)[C@H](Cc2ccc(-c3ccccc3)cc2)NC(=O)[C@H](C(C)C)NC(=O)[C@H](Cc2c[nH]c3ccccc23)NC(=O)[C@H](CC(=O)O)NC(=O)[C@H](Cc2ccc(OCC(=O)O)cc2)NC(=O)[C@H](CN)NC(=O)CSC[C@@H](C(=O)NCCOCCOCC(=O)N[C@@H](CCCN)C(=O)NCCCCCCCCCCC(=O)O)NC(=O)[C@H]([C@@H](C)O)NC(=O)[C@H](C(C)C)NC(=O)[C@H](CC2CCCCC2)NC(=O)[C@H](Cc2cnc[nH]2)NC1=O` [Compound 1097] ({CH2CO}-[Dap]Y(Carboxymethyl)DWV[Bip]V[Orn][dL]H[Cha]VTC[AEEA][Orn][Aun]-OH; thioether N-14), the concentration for half-maximal inhibition (IC50) stood at 14.9 nM.

For `CCC(C)[C@@H]1NC(=O)[C@H](Cc2ccc(-c3ccccc3)cc2)NC(=O)[C@H](C(C)C)NC(=O)[C@H](Cc2c[nH]c3ccccc23)NC(=O)[C@H](CC(=O)O)NC(=O)[C@H](Cc2ccc(C(=O)O)cc2)NC(=O)[C@H](Cc2ccncc2)NC(=O)CSC[C@@H](C(=O)N[C@H](CO)C(=O)NCCOCCOCC(=O)N[C@@H](CCCN)C(=O)NCCCCCCCCCCC(=O)O)NC(=O)[C@H](CO)NC(=O)[C@H](C(C)C)NC(=O)[C@H](CC2CCCCC2)NC(=O)[C@H](CCN)NC(=O)[C@@H](CC(C)C)NC(=O)[C@H](CCCN)NC1=O` (stereo partly drawn) [Compound 3059] ({CH2CO}-[4Pal][Phe(4-COOH)]DWV[Bip][Ile(3ξ)][Orn][dL][Dab][Cha]VSC[dS][AEEA][Orn][Aun]-OH; thioether N-14), the IC50 came to 12.2 nM.

Consider `Cc1cccc(C[C@@H]2NC(=O)[C@H](CC(=O)O)NC(=O)[C@H](Cc3ccc(OCC(=O)O)cc3)NC(=O)[C@H](CCCCNC(=N)N)NC(=O)CSC[C@@H](C(=O)N[C@@H](CCCN)C(=O)N[C@@H](CO)C(=O)NCCCCCCCCCCC(=O)O)NC(=O)[C@H](C(C)O)NC(=O)[C@H](C(C)C)NC(=O)[C@H](CC3CCCCC3)NC(=O)[C@H](CCN)NC(=O)[C@@H](CC(C)C)NC(=O)[C@H](CCCN)NC(=O)[C@H](C(C)C)NC(=O)[C@H](Cc3ccc(-c4ccccc4)cc3)NC(=O)[C@H](C(C)C)NC2=O)c1` (stereo partly drawn) [Compound 3268] ({CH2CO}-[hArg]Y(Carboxymethyl)D[Phe(3-Me)]V[Bip]V[Orn][dL][Dab][Cha]V[Thr(3ξ)]C[Orn]S[Aun]-OH; thioether N-14), for which the IC50 came out at 8 nM.

In the case of `Cc1cccc(C[C@@H]2NC(=O)[C@H](CC(=O)O)NC(=O)[C@H](Cc3ccc(OCC(=O)O)cc3)NC(=O)[C@H](CN)NC(=O)CSC[C@@H](C(=O)N[C@@H](CCCN)C(=O)NCCCCCCCCCCC(=O)O)NC(=O)[C@H](CCC(N)=O)NC(=O)[C@H](C(C)C)NC(=O)[C@H](CC3CCCCC3)NC(=O)[C@H](CCN)NC(=O)[C@@H](CC(C)C)NC(=O)[C@H](CCN)NC(=O)[C@H](Cc3ccc(OCC(=O)O)cc3)NC(=O)[C@H](Cc3ccc(-c4ccccc4)cc3)NC(=O)[C@H](Cc3ccc(OCC(=O)O)cc3)NC2=O)c1` [Compound 2857] ({CH2CO}-[Dap]Y(Carboxymethyl)D[Phe(3-Me)]Y(Carboxymethyl)[Bip]Y(Carboxymethyl)[Dab][dL][Dab][Cha]VQC[Orn][Aun]-OH; thioether N-14), the IC50 was found to be 35 nM.

On to `Cc1cccc(C[C@@H]2NC(=O)[C@H](CC(=O)O)NC(=O)[C@H](Cc3ccc(OCC(=O)O)cc3)NC(=O)[C@H](C(C)O)NC(=O)CSC[C@@H](C(=O)N[C@H](CC(N)=O)C(=O)NCCCCCCCCCCC(=O)O)NC(=O)[C@H](C(C)O)NC(=O)[C@H](C(C)C)NC(=O)[C@H](CC3CCCCC3)NC(=O)[C@H](CCN)NC(=O)[C@@H](CC(C)C)NC(=O)[C@H](CCCN)NC(=O)[C@H](Cc3ccc(OCC(=O)O)cc3)NC(=O)[C@H](Cc3ccc(-c4ccccc4)cc3)NC(=O)[C@H](C(C)C)NC2=O)c1` (stereo partly drawn) [Compound 3493] ({CH2CO}-[Thr(3ξ)]Y(Carboxymethyl)D[Phe(3-Me)]V[Bip]Y(Carboxymethyl)[Orn][dL][Dab][Cha]V[Thr(3ξ)]C[dN][Aun]-OH; thioether N-14), for which the IC50 is 9.8 nM.

For the compound `CCC(C)[C@@H]1NC(=O)[C@H](Cc2ccc(-c3ccccc3)cc2)NC(=O)[C@H](C(C)C)NC(=O)[C@H](Cc2c[nH]c3ccccc23)NC(=O)[C@H](CC(=O)O)NC(=O)[C@H](Cc2ccc(OCC(=O)O)cc2)NC(=O)[C@H]([C@H](C)O)NC(=O)CSC[C@@H](C(=O)NCCOCCOCC(=O)N[C@@H](CCCCN)C(=O)NCCCCCCCCCCC(=O)O)NC(=O)[C@H](CO)NC(=O)[C@H](C(C)C)NC(=O)[C@H](CC(C)C)NC(=O)[C@H](CCN)NC(=O)[C@@H](CC(C)C)NC(=O)[C@H](CCCN)NC1=O` (stereo partly drawn) [Compound 3083] ({CH2CO}-[aThr]Y(Carboxymethyl)DWV[Bip][Ile(3ξ)][Orn][dL][Dab]LVSC[AEEA]K[Aun]-OH; thioether N-14), the IC50 turned out to be 26.2 nM.

The IC50 is the concentration needed to halve the response being measured.
